Measurements as given in patent US20240139220A1, “TREATMENT OF HPV INFECTION” (priority 2022, published 2024).

Assays:
Type in all cases: physicochemical
[1] = Bulk stability, accelerated storage for one week (HPLC, XRPD); settings: for Stability after exposure to the three conditions: 25° C./92% RH open, 40° C./75% RH open, 60° C. tight container; for Stability after exposure to the three conditions / Degradation product increase: one week; for Bulk (XRPD) / Color / Purity, Bulk (HPLC): 1 week; for Initial HPLC purity: before storage
Description: Bulk stability: Accelerated stability experiments were conducted at 25° C./92% RH and 40° C./75% RH in an open container, 60° C. in a tight container for one week.
Samples were characterized by XRPD and HPLC and inspected for color change.
Accelerated stability experiments were conducted at 25° C./92% RH in an open container, at 40° C./75% RH in an open container, and at 60° C. in a tight container for one week.

[2] = Solubility in buffers, water and simulated vaginal fluid at 37° C.
Description: About 4 mg of Compound I Pattern 1 was added into 2 mL of buffer solution.
(§1) Solubility was tested in five media, pH 3.0 citrate buffer, pH 4.5 acetate buffer, pH 6.8 phosphate buffer, water, simulated vaginal fluid (pH 4.2) at 37° C. for 0.5 h and 2 h.
The salt amount used is equivalent to 10 mg anhydrous free base. […] The obtained clear solutions were analyzed by pH meter for pH, and solubility was determined by observation.
as §1

[3] = Hygroscicity by Dynamic Vapor Sorption (DVS) at 25° C.; settings: for Desorp. (%) Cycle 1 / Desorp. (%) Cycle 2 / Sorp. (%) Cycle 1 / Sorp. (%) Cycle 2 / Hygroscopicity / Water uptake: DVS 25° C.; for XRPD after DVS test: 25° C.; for Water uptake: up to 95% RH
Description: Hygroscopicity was investigated by DVS at 25° C., using the following method: […]

[4] = Polymorph screening by equilibration in solvents at 25° C. (XRPD)
[5] = BS1: solid state, 25° C./92% RH, open container
[6] = BS2: solid state, 40° C./75% RH, open container
[7] = BS3: solid state, 60° C., tight container
[8] = ES1: pH 3.0, 100 mM citrate buffer
[9] = ES2: pH 4.5, 50 mM acetate buffer
[10] = ES3: pH 6.8, 50 mM phosphate buffer
[11] = ES5: Simulated vaginal fluid (pH adjusted by 0.1N NaOH)

Structure (SMILES): CCOC(=O)C(C)NP(=O)(COCCn1cnc2c(OC)nc(N)nc21)OCc1ccccc1.O=C(O)C=CC(=O)O (stereo not shown) [Compound II Pattern 1]
- Stability after exposure to the three conditions [1]: good physical and chemical stability
- Bulk (XRPD) [1, 5]: No form change
- Color [1, 5]: No change
- Purity, Bulk (HPLC) [1, 5]: 99.5%
- Bulk (XRPD) [1, 6]: No form change
- Color [1, 6]: No change
- Purity, Bulk (HPLC) [1, 6]: 99.4%
- Bulk (XRPD) [1, 7]: No form change
- Color [1, 7]: No change
- Purity, Bulk (HPLC) [1, 7]: 99.7%
- Initial HPLC purity [1]: 99.7%
- Solubility 0.5 hours [2, 8]: >2000 µg/mL
- Solubility 2 hours [2, 8]: > 2000 µg/mL
- pH of solution, 2 hours [2, 8]: 2.85
- Solubility 0.5 hours [2, 9]: >2000 µg/mL
- Solubility 2 hours [2, 9]: > 2000 µg/mL
- pH of solution, 2 hours [2, 9]: 4.2
- Solubility 0.5 hours [2, 10]: >2000 µg/mL
- Solubility 2 hours [2, 10]: > 2000 µg/mL
- pH of solution, 2 hours [2, 10]: 6.47
- Solubility 0.5 hours ([2]; ES4: Water): >2000 µg/mL
- Solubility 2 hours ([2]; ES4: Water): > 2000 µg/mL
- pH of solution, 2 hours ([2]; ES4: Water): 2.87
- Solubility 0.5 hours [2, 11]: >2000 µg/mL
- Solubility 2 hours [2, 11]: > 2000 µg/mL
- pH of solution, 2 hours [2, 11]: 5.79
- Desorp. (%) Cycle 1 ([3]; 0% RH): 0.03%
- Desorp. (%) Cycle 2 ([3]; 0% RH): 0.03%
- Sorp. (%) Cycle 1 ([3]; 0% RH): 0.03%
- Sorp. (%) Cycle 2 ([3]; 0% RH): 0.03%
- Desorp. (%) Cycle 1 ([3]; 10% RH): 0.05%
- Desorp. (%) Cycle 2 ([3]; 10% RH): 0.05%
- Sorp. (%) Cycle 1 ([3]; 10% RH): 0.04%
- Sorp. (%) Cycle 2 ([3]; 10% RH): 0.04%
- Desorp. (%) Cycle 1 ([3]; 20% RH): 0.08%
- Desorp. (%) Cycle 2 ([3]; 20% RH): 0.07%
- Sorp. (%) Cycle 1 ([3]; 20% RH): 0.06%
- Sorp. (%) Cycle 2 ([3]; 20% RH): 0.06%
- Desorp. (%) Cycle 1 ([3]; 30% RH): 0.10%
- Desorp. (%) Cycle 2 ([3]; 30% RH): 0.08%
- Sorp. (%) Cycle 1 ([3]; 30% RH): 0.08%
- Sorp. (%) Cycle 2 ([3]; 30% RH): 0.07%
- Desorp. (%) Cycle 1 ([3]; 40% RH): 0.17%
- Desorp. (%) Cycle 2 ([3]; 40% RH): 0.10%
- Sorp. (%) Cycle 1 ([3]; 40% RH): 0.10%
- Sorp. (%) Cycle 2 ([3]; 40% RH): 0.09%
- XRPD after DVS test ([3]; 40-0-95-0-40% RH): No form change
- Desorp. (%) Cycle 2 ([3]; 50% RH): 0.12%
- Sorp. (%) Cycle 1 ([3]; 50% RH): 0.12%
- Desorp. (%) Cycle 2 ([3]; 60% RH): 0.14%
- Sorp. (%) Cycle 1 ([3]; 60% RH): 0.13%
- Desorp. (%) Cycle 2 ([3]; 70% RH): 0.18%
- Sorp. (%) Cycle 1 ([3]; 70% RH): 0.16%
- Desorp. (%) Cycle 2 ([3]; 80% RH): 0.21%
- Sorp. (%) Cycle 1 ([3]; 80% RH): 0.19%
- Desorp. (%) Cycle 2 ([3]; 90% RH): 0.24%
- Sorp. (%) Cycle 1 ([3]; 90% RH): 0.23%
- Desorp. (%) Cycle 2 ([3]; 95% RH): 0.24%
- Sorp. (%) Cycle 1 ([3]; 95% RH): 0.24%
- Hygroscopicity [3]: slightly hygroscopic
- XRPD after DVS test ([3]; cycle 40-0-95-0-40% RH): No form change
- Water uptake [3]: about 0.2%
- Crystal modification after 1 week equilibration (XRPD) ([4]; PS1: IPA): Compound II Pattern 1
- Crystal modification after 1 week equilibration (XRPD) ([4]; PS2: Heptanes): Compound II Pattern 1
- Crystal modification after 1 week equilibration (XRPD) ([4]; PS3: Water): Compound II Pattern 1
- Crystal modification after 1 week equilibration (XRPD) ([4]; PS4: ACN): Compound II Pattern 2
- Crystal modification after 1 week equilibration (XRPD) ([4]; PS5: MEK): Compound II Pattern 3
- Crystal modification after 1 week equilibration (XRPD) ([4]; PS6: Acetone): Compound II Pattern 1
- Crystal modification after 1 week equilibration (XRPD) ([4]; PS7: IPA/heptanes (3/10, v/v)): Compound II Pattern 1
- Crystal modification after 1 week equilibration (XRPD) ([4]; PS8: water/ACN (2.9/97.1, v/v)): Compound II Pattern 2
- Crystal modification after 1 week equilibration (XRPD) ([4]; PS9: IPA/MTBE (1/3, v/v)): Compound II Pattern 1
- Crystal modification after 1 week equilibration (XRPD) ([4]; PS10: EA/toluene (1/3, v/v)): Compound II Pattern 1

Structure (SMILES): CCOC(=O)C(C)NP(=O)(COCCn1cnc2c(OC)nc(N)nc21)OCc1ccccc1.O=C(O)C=CC(=O)O (stereo not shown) [Compound III Pattern 2]
- Stability after exposure to the three conditions [1]: good physical stability
- Degradation product increase ([1]; 40° C./75% RH in an open container): 1.6%
- Degradation product increase ([1]; 60° C. in a tight container): 1.5%
- Bulk (XRPD) [1, 5]: No form change
- Color [1, 5]: No change
- Purity, Bulk (HPLC) [1, 5]: 98.7%
- Bulk (XRPD) [1, 6]: No form change (One
- Color [1, 6]: No change
- Purity, Bulk (HPLC) [1, 6]: 97.2%
- Bulk (XRPD) [1, 7]: No form change (One
- Color [1, 7]: No change
- Purity, Bulk (HPLC) [1, 7]: 97.3%
- Initial HPLC purity [1]: 98.8%
- Solubility 0.5 hours [2, 8]: >2000 µg/mL
- Solubility 2 hours [2, 8]: > 2000 µg/mL
- pH of solution, 2 hours [2, 8]: 2.83
- Solubility 0.5 hours [2, 9]: >2000 µg/mL
- Solubility 2 hours [2, 9]: > 2000 µg/mL
- pH of solution, 2 hours [2, 9]: 4.12
- Solubility 0.5 hours [2, 10]: >2000 µg/mL
- Solubility 2 hours [2, 10]: > 2000 µg/mL
- pH of solution, 2 hours [2, 10]: 6.44
- Solubility 0.5 hours ([2]; ES4: Water): >2000 µg/mL
- Solubility 2 hours ([2]; ES4: Water): > 2000 µg/mL
- pH of solution, 2 hours ([2]; ES4: Water): 2.78
- Solubility 0.5 hours [2, 11]: >2000 µg/mL
- Solubility 2 hours [2, 11]: > 2000 µg/mL
- pH of solution, 2 hours [2, 11]: 5.37
- Desorp. (%) Cycle 1 ([3]; 0% RH): 0.00%
- Desorp. (%) Cycle 2 ([3]; 0% RH): 0.00%
- Sorp. (%) Cycle 1 ([3]; 0% RH): 0.00%
- Sorp. (%) Cycle 2 ([3]; 0% RH): 0.00%
- Desorp. (%) Cycle 1 ([3]; 10% RH): 0.07%
- Desorp. (%) Cycle 2 ([3]; 10% RH): 0.07%
- Sorp. (%) Cycle 1 ([3]; 10% RH): 0.07%
- Sorp. (%) Cycle 2 ([3]; 10% RH): 0.07%
- Desorp. (%) Cycle 1 ([3]; 20% RH): 0.15%
- Desorp. (%) Cycle 2 ([3]; 20% RH): 0.15%
- Sorp. (%) Cycle 1 ([3]; 20% RH): 0.14%
- Sorp. (%) Cycle 2 ([3]; 20% RH): 0.14%
- Desorp. (%) Cycle 1 ([3]; 30% RH): 0.23%
- Desorp. (%) Cycle 2 ([3]; 30% RH): 0.23%
- Sorp. (%) Cycle 1 ([3]; 30% RH): 0.22%
- Sorp. (%) Cycle 2 ([3]; 30% RH): 0.22%
- Desorp. (%) Cycle 1 ([3]; 40% RH): 0.30%
- Desorp. (%) Cycle 2 ([3]; 40% RH): 0.32%
- Sorp. (%) Cycle 1 ([3]; 40% RH): 0.29%
- Sorp. (%) Cycle 2 ([3]; 40% RH): 0.30%
- XRPD after DVS test ([3]; 40-0-95-0-40% RH): No form change
- Desorp. (%) Cycle 2 ([3]; 50% RH): 0.41%
- Sorp. (%) Cycle 1 ([3]; 50% RH): 0.39%
- Desorp. (%) Cycle 2 ([3]; 60% RH): 0.52%
- Sorp. (%) Cycle 1 ([3]; 60% RH): 0.47%
- Desorp. (%) Cycle 2 ([3]; 70% RH): 0.67%
- Sorp. (%) Cycle 1 ([3]; 70% RH): 0.59%
- Desorp. (%) Cycle 2 ([3]; 80% RH): 0.81%
- Sorp. (%) Cycle 1 ([3]; 80% RH): 0.71%
- Desorp. (%) Cycle 2 ([3]; 90% RH): 0.97%
- Sorp. (%) Cycle 1 ([3]; 90% RH): 0.92%
- Desorp. (%) Cycle 2 ([3]; 95% RH): 1.01%
- Sorp. (%) Cycle 1 ([3]; 95% RH): 1.01%
- Hygroscopicity [3]: slightly hygroscopic
- XRPD after DVS test ([3]; cycle 40-0-95-0-40% RH): No form change
- Water uptake [3]: about 1.0%
- Crystal modification after 1 week equilibration (XRPD) ([4]; PS1: IPA): Compound V Pattern 2
- Crystal modification after 1 week equilibration (XRPD) ([4]; PS2: Heptanes): Compound III Pattern 2
- Crystal modification after 1 week equilibration (XRPD) ([4]; PS3: Water): Compound III Pattern 3
- Crystal modification after 1 week equilibration (XRPD) ([4]; PS4: ACN): Compound III Pattern 4
- Crystal modification after 1 week equilibration (XRPD) ([4]; PS5: MEK): Compound III Pattern 5
- Crystal modification after 1 week equilibration (XRPD) ([4]; PS7: IPA/heptanes (3/10, v/v)): Compound III Pattern 2
- Crystal modification after 1 week equilibration (XRPD) ([4]; PS8: water/ACN (2.9/97.1, v/v)): Compound III Pattern 4
- Crystal modification after 1 week equilibration (XRPD) ([4]; PS9: IPA/MTBE (1/3, v/v)): Compound III Pattern 6
- Crystal modification after 1 week equilibration (XRPD) ([4]; PS10: EA/toluene (1/3, v/v)): Compound III Pattern 2
